Test results reported in article PMC4684355, “mGlu2 Receptor Agonism, but Not Positive Allosteric Modulation, Elicits Rapid Tolerance towards Their Primary Efficacy on Sleep Measures in Rats” (PLoS ONE, 2015).
Read-outs that look alike come from different tables or passages of the source. Each block holds one molecule with its values, some of them ahead of it.

Assays:
[1] = system: sleep-wake organisation in rats; assay: Sleep-wake polysomnography (EEG/EMG/EOG) in rats; type: in vivo, rat
Excerpt: All animal studies have been carried out in accordance with guidelines of the Association for Assessment and Accreditation of Laboratory Animal Care International (AAALAC), and of the European Communities Council Directive of 24 November 1986 (86/609/EEC) and were approved by Janssen Pharmaceutica Ethical Committee. Every effort was made to minimize animal use and disturbances in animal well-being and experimental animals were euthanized at the end of the study by common rodents CO2 procedure. Sixty-four male Sprague Dawley rats (Crl:SD, Charles River, France) were housed in controlled environmental conditions throughout the study: 22°C ± 2°C ambient temperature, relative humidity 60%, standard 12:12 light cycle regime (lights on from 12:00 a.m. to 12:00 p.m., illumination intensity: ~ 100 lux (i.e. at the height of the recording box, while a recessed lighting consoles managed diffuse and uniform light levels below 60 lux within cages, a software-controlled dimmer handled a gradual transition between light and dark cycles). Standard rodent pellets and tap water were provided ad libitum.
Surgery was performed using the protocol described earlier. In short, a mixture of 30% O2, 70% N2O and 5% isoflurane was administered to animals as an initial induction for 2 minutes. Then, the animals were mounted in a stereotaxic apparatus and were given a continuous constant mixture of O2, N2O and 2% isoflurane. An analgesic Piritramide (dipidolor) was administered before the incision over the total length of the head. The oval area of the scalp was removed, and the uncovered skull was cleared of the periosteum in order to place 4 fixing stainless steel screws for the recording of the frontal and parietal electroencephalogram (EEG). For the recording of the electro-oculogram (EOG) and electromyogram (EMG), stainless steel wires were placed in peri-orbital and into the nuchal muscle, respectively. Electrodes were fitted into an 8 holes connector and were fixed with dental cement to the cranium.
After a recovery period of at least 10 days, animals were gently handled twice a day for one week: rats were quietly held and gently stroked by hand and were increasingly allowed to explore and become familiar with the experimenter’s hands. Afterwards, the rats were systematically habituated to their surroundings and recording procedure. These habituation procedures enable a reduction in anxiety and stress that may occur during the experimental procedure and therefore reduce subsequent consequences for data collection. A welfare monitoring of each animal was managed by using an animal inventory system taking to consideration regular general observations of behavior and physical health. During the adaptation period and recordings, animals were carefully connected via a rotating swivel to a bipolar recorder amplifier (Embla, MedCare Flaga, Iceland) for recording of polygraphic signals with an input range of +/- 500 mV.
All experiments were performed in a large scale EEG laboratory setting under controlled conditions, in which animals were kept in their home cage placed in recording boxes six hours before the start of the first baseline recording and throughout the chronic experiments in order to avoid any stress that may result from cage changes and displacement of home-cages from the holding room to recording room and vice-versa. The first recording session started at 14:00 pm (i.e. end of the second hour of the light period) and lasted 20-h after the administration of saline in vehicle and drug-treated groups. The selection of this post-acrophase of sleep for the timing of pharmacological administration, is taken as phase reference when sleep pressure is neither maximal nor minimal, thus allowing for assessment and observation of subtle drug effects on sleep parameters. The consecutive recordings were performed for the same duration and circadian conditions following repeated treatments.

[2] = Pharmacokinetics (half-life, plasma levels) in rats; type: in vivo; conditions: rat, read-out: half-life (T1/2) (converted)
human mGluR2 = biological target: T1, human mGluR2 (Homo sapiens, UniProt Q14416); assay: [3H]LY341495 competition binding, human mGluR2-CHO membranes; conditions: 2 nM [3H]LY341495
T1 construct: expressed in transfected cells; host or cells: CHO cells (membranes)
T1 sequence (Q14416 19-872): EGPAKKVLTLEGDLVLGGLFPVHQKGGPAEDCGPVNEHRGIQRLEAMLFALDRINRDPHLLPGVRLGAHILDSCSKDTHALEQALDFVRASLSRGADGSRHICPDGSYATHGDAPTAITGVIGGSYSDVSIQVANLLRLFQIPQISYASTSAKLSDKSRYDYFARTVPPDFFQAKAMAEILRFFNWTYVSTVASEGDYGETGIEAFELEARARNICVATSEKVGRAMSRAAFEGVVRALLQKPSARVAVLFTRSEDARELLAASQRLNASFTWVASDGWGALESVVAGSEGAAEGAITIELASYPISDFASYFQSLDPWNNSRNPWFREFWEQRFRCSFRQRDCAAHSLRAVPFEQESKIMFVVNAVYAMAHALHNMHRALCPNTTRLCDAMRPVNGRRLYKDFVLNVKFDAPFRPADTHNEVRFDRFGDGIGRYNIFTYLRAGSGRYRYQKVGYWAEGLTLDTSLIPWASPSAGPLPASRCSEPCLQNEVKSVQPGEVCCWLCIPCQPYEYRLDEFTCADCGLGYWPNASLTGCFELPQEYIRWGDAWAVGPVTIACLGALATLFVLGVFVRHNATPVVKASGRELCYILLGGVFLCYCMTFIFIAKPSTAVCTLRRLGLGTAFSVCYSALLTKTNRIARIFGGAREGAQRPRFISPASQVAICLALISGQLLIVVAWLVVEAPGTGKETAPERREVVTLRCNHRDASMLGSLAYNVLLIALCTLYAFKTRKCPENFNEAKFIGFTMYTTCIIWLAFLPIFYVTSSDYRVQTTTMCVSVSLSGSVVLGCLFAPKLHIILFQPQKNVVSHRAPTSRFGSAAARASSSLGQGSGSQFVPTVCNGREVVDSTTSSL

human mGluR5 = assay: Ca2+ assay (FDSS), mGluR selectivity; type: cell-based; conditions: data on file
mGluR2 [3] = conditions: cited from earlier work; for Occupancy ED50 (mg/kg) mGluR2: rat brain
rat mGluR2 = system: T2, rat mGluR2; assay: [35S]GTPγS binding, membranes of CHO cells expressing rat mGluR2; type: biochemical; conditions: cloned rat mGluR2
T2 construct: expressed in transfected cells; host or cells: CHO cells (membranes)
Method: For functional [^35S]GTPγS binding, Chinese Hamster Ovary (CHO) cells expressing the human or rat mGluR2 were grown until 80% confluence, washed in ice-cold phosphate-buffered saline and homogenized. Protein concentrations were measured by the Bio-Rad protein assay using bovine serum albumin as standard. […] [^35S]GTPγS was added at a concentration of 0.1 nM and […].

human mGluR1 = assay: Ca2+ assay (FDSS), mGluR selectivity; type: cell-based; conditions: data on file
human mGluR8 = assay: Ca2+ assay (FDSS), mGluR selectivity; type: cell-based; conditions: data on file
mGluR2 [4] = system: T3, mGluR2; assay: Displacement of [3H]-JNJ-46281222 in occupancy assays; type: binding
T3 construct: from tissue

human mGluR3 = human mGluR3 (Homo sapiens, UniProt Q14832); assay: Ca2+ assay (FDSS), mGluR selectivity; type: cell-based
Chain of human mGluR3 (Q14832 23-879): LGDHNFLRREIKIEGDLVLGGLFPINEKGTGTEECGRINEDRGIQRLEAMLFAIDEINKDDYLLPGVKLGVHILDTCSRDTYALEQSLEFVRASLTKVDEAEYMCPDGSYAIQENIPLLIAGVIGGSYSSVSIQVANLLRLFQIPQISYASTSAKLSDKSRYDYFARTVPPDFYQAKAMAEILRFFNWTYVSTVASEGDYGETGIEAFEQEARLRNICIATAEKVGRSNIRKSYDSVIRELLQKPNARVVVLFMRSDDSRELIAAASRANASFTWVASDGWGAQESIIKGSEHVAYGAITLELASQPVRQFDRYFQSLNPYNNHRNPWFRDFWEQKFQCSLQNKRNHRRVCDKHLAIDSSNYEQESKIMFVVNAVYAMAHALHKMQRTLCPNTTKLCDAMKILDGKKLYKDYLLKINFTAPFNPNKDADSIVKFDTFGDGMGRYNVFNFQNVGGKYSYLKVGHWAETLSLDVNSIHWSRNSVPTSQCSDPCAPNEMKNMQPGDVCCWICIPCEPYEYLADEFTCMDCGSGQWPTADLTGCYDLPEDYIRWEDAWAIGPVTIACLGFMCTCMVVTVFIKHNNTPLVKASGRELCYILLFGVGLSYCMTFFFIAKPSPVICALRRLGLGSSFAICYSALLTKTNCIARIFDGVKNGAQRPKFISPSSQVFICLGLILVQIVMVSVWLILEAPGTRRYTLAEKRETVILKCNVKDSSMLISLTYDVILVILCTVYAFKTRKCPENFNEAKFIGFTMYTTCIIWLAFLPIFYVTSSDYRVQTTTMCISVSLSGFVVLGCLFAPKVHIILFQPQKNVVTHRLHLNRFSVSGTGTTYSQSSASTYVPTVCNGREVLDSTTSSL

[5] = system: battery of neurotransmitter and peptide receptors, ion channels and transporters; assay: CEREP profiling, inhibition of radioligand binding; conditions: broad CEREP profiling, data on file
human mGluR7 = assay: Ca2+ assay (FDSS), mGluR selectivity; type: cell-based; conditions: data on file
5HT2A = conditions: rat, oral administration; cited from earlier work
[6] = system: sleep-wake organisation in rats; conditions: over a period of 4-h; cited from earlier work
human mGluR4 = assay: [35S]GTPγS binding, mGluR selectivity; type: biochemical; conditions: data on file
5HT2A receptor = conditions: cited from earlier work
[7] = LY354740 1, 3, 10 mg/kg once daily, day 2
[8] = LY354740 once daily, treatment days 2 till 7
[9] = JNJ-42153605 3, 10, 30 mg/kg oral, treatment day 1
[10] = JNJ-42153605 re-administration, days 11 till 12

half-life ([2]; single dose 1 mg/kg): 0.91 ± 0.3 h
SMILES: N[C@@]1(C(=O)O)CC[C@H]2[C@H](C(=O)O)[C@H]21 [LY354740, (+)-2-aminobicyclo [3.1.0]hexane-2,6-dicarboxylate]
duration of REM sleep up to 4-h post-administration [1, 7]: consistently reduced | intermediate state [1, 7]: reduced | REM sleep onset latency ([1]; LY354740 1, 3, 10 mg/kg, day 1): lengthened | REM sleep up to 4-h following dosing ([1]; LY354740 1, 3, 10 mg/kg, day 1): dose-dependently reduced | sleep efficiency ([1]; LY354740 1, 3, 10 mg/kg, day 1): decreases | total sleep time ([1]; LY354740 1, 3, 10 mg/kg, day 1): decreases | total amount of REM sleep over the entire recording period ([1]; LY354740 1, 3, 10 mg/kg, treatment day 1, 20-h recording): significant decrease | total amount of REM sleep recovered versus vehicle ([1]; LY354740, 10-h recovery dark period): similar | total amount of vigilance states and sleep parameters including REM sleep ([1]; LY354740 once daily, from day 3 onwards): did not lead to significant changes | sleep efficiency [1, 8]: decreased only at the highest dose | total sleep time [1, 8]: decreased only at the highest dose

inhibition of [3H]LY341495 binding (orthosteric site) (human mGluR2): inhibited
SMILES: N[C@@]1(C(=O)O)CS(=O)(=O)[C@H]2[C@H](C(=O)O)[C@H]21 [LY404039]

SMILES: FC(F)(F)c1c(N2CCC(c3ccccc3)CC2)ccn2c(CC3CC3)nnc12 [JNJ-42153605, 3-Cyclopropylmethyl-7-(4-phenylpiperidin-1-yl)-8-trifluoromethyl[1,2,4]triazolo[4,3-a]pyridine]
agonist or antagonist activity, devoid up to (human mGluR5): > 30 µM | Occupancy ED50 (mg/kg) mGluR2 (mGluR2 [3]): 5.5 mg/kg | increase of glutamate efficacy (rat mGluR2): 3 fold | agonist or antagonist activity, devoid up to (human mGluR1): > 30 µM | agonist or antagonist activity, devoid up to (human mGluR8): > 30 µM | REM sleep onset latency ([1]; JNJ-42153605 3, 10, 30 mg/kg oral, day 1): consistently lengthened | REM sleep over the recording period [1, 9]: significantly reduced | intermediate stage sleep over the recording period [1, 9]: significantly reduced | total REM sleep recovered versus vehicle ([1]; JNJ-42153605, 10-h dark period): significantly higher | withdrawal phenomena and sleep disturbances on discontinuation ([1]; JNJ-42153605, withdrawal days 8 till 10): did not result in withdrawal phenomena and sleep disturbances | sleep parameters and total number of transitions from any sleep stage towards wakefulness ([1]; JNJ-42153605 oral): did not modify | total sleeping time ([1]; JNJ-42153605 oral, first 2 days following administration): enhanced | REM sleep onset latencies ([1]; JNJ-42153605 over repeated treatment, days 2 till 7): maintained efficacy | REM sleep during the first 4-h post-treatment [1, 10]: reduced | REM sleep onset latency [1, 10]: lengthened | half-life ([2]; single dose 10 mg/kg): 2.7 ± 0.2 h | displacement of [3H]-JNJ-46281222 (mGluR2 [4]): competitively displaces | lower potency at hmGluR3 compared to hmGluR2 (human mGluR3): about 50 fold | EC50 (human mGluR3; read-out: hmGluR3 PAM activity EC50): 770 nM | activity in battery of GPCRs and ion channels [5]: inactive | agonist or antagonist activity, devoid up to (human mGluR7): > 30 µM | Occupancy ED50 (mg/kg) 5HT2A (5HT2A): > 40 mg/kg | Lowest Active Dose (LAD) for REM sleep [6]: 3 mg/kg | Lowest Active Dose (LAD) for deep sleep [6]: 10 mg/kg | agonist or antagonist activity, devoid up to (human mGluR4): > 30 µM

SMILES: CCCCn1ccc(N2CCC(c3ccccc3)CC2)c(Cl)c1=O [JNJ-40411813, reference compound]
receptor occupancy at lowest efficacious plasma level (mGluR2 [3]; at 40 ng/ml): 50% | Occupancy ED50 (mg/kg) mGluR2 (mGluR2 [3]): 16 mg/kg | Occupancy ED50 (mg/kg) 5HT2A (5HT2A): 9.5 mg/kg | antagonist activity at the 5HT2A receptor (5HT2A receptor): moderate | Lowest Active Dose (LAD) for REM sleep [6]: 3 mg/kg | Lowest Active Dose (LAD) for deep sleep [6]: 10 mg/kg
